Results as given in patent publication US20110293524A1, “METHODS AND COMPOSITIONS FOR THE REGULATION OF LECTIN COMPLEMENT PATHWAY (LCP)-ASSOCIATED COMPLEMENT ACTIVATION IN HYPERGLYCEMIC MYOCARDIAL DAMAGE” (The Brigham and Women"s Hosptial Inc., priority 2008, published 2011).

What was measured:
Format in all cases: in vivo
[1] = test system: diabetic WT mice; test: Left ventricular long and short axis area measurements by echocardiography before MI/R; details: STZ-diabetic WT mice, insulin 2-6 IU i.p. daily for 2 weeks
Protocol: (§1) All animals used in MI/R experiments were male mice aged 8-12 wk old. C57BL/6 [wildtype (WT)] mice were obtained from Charles River Laboratories (Wilmington, Mass.). MBL null animals 21, back-crossed 8-10 generations onto the C57BL/6 background, were used as previously described^2,22. All procedures were reviewed and conducted in accordance with the Institute's Animal Care and Use Committee (IACUC). Experiments were performed according to the standards and principles set forth in the National Institutes of Health (Guide for the Care and Use of Laboratory Animals-DHHS publication no. (NIH) 85-23, revised 1985). […] Three days after STZ injection and immediately before MI/R studies, the urine glucose was assessed with Glucostix (Diastix, Bayer, Elkhart, Ind.). […]
(§2) Echocardiography was performed after mice had underwent experimental MI/R as described above. It has been shown that in the mouse model of MI/R, myocardial damage via infarct analysis is directly correlated with loss of function as measured by echocardiography^2. […] Ejection fraction (EF) was calculated both via left ventricular M-mode measurements and via long axis length and short axis area measurements of the left ventricle (LV)^24,25. […] In some animals, long axis and short axis area measurements of the LV were assessed prior to MI/R to assess myocardial dimensions under nonischemic conditions.

[2] = test system: diabetic WT mice; test: Heart/body weight ratio after 2 weeks of diabetes; details: STZ-diabetic WT mice, insulin-treated, no MI/R
Protocol: (§3) All animals used in MI/R experiments were male mice aged 8-12 wk old. C57BL/6 [wildtype (WT)] mice were obtained from Charles River Laboratories (Wilmington, Mass.). MBL null animals 21, back-crossed 8-10 generations onto the C57BL/6 background, were used as previously described^2,22. All procedures were reviewed and conducted in accordance with the Institute's Animal Care and Use Committee (IACUC). Experiments were performed according to the standards and principles set forth in the National Institutes of Health (Guide for the Care and Use of Laboratory Animals-DHHS publication no. (NIH) 85-23, revised 1985). Mice were made diabetic by a single injection of freshly prepared streptozotocin (STZ) solution (200 mg/kg body weight in citrate saline, pH 4.2, i.p., ALEXIS, Lausen, Switzerland)^23. The mice were housed in cages of four mice each and had unlimited access to water and standard mouse chow. Three days after STZ injection and immediately before MI/R studies, the urine glucose was assessed with Glucostix (Diastix, Bayer, Elkhart, Ind.). Mice with urine glucose>500 mg/dl in both tests were presumed to be diabetic. […]
(§4) Hearts were excised and fixed in 10% formalin PBS at 4° C. overnight. […] Serum troponin I concentrations were measured as an index of myocardial cell death using a commercially available ELISA kit (Life Diagnostics, West Chester, Pa.)^26.

[3] = test system: diabetic WT mice; test: Neutrophil infiltration into the myocardium following MI/R (Ly-6G staining, infrared imaging); details: diabetic WT mice treated with insulin; 15 min ischemia, 4 h reperfusion
Protocol: as §3, with “diabetic. A group of STZ-injected mice was intensively treated with Lantus insulin (Sanofi-Aventis, Bridgewater, N.J.) to rule out any potentially cardiotoxic effects of STZ. Dependent on the individual daily urine glucose, 2-6 IU of insulin was injected (i.p.) daily.” for “diabetic.”

[4] = test system: diabetic WT mice; test: Left ventricular ejection fraction by echocardiography after MI/R (15 min ischemia, 4 h reperfusion); details: STZ-diabetic WT mice, insulin 2-6 IU i.p. daily for 2 weeks, vs non-treated diabetic WT mice
Protocol: as §1, §2

[5] = test system: diabetic WT mice; test: Serum troponin I concentration after MI/R (ELISA); details: insulin-treated diabetic animals vs non-treated diabetic WT mice; 15 min ischemia, 4 h reperfusion
Protocol: as §3, §4

[6] = test system: diabetic WT mice; test: Cardiac progenitor cell (CPC) numbers in heart sections (SCF R/c-kit staining); details: diabetic WT mice treated with insulin, two weeks of diabetes
Protocol: as §3, with “diabetic. A group of STZ-injected mice was intensively treated with Lantus insulin (Sanofi-Aventis, Bridgewater, N.J.) to rule out any potentially cardiotoxic effects of STZ. Dependent on the individual daily urine glucose, 2-6 IU of insulin was injected (i.p.) daily.” for “diabetic.”

For insulin, the “diabetic cardiomyopathy as measured by long and short axis measurements via echocardiography” value [1] was “protected diabetic WT mice from diabetic cardiomyopathy”, the “diabetic cardiomyopathy / hypertrophic remodeling by heart/body weight ratios” value [2] was “protected diabetic WT mice from diabetic cardiomyopathy” and the “inflammatory response (neutrophil infiltration into cardiac tissue) after MI/R” value [3] was “attenuated the inflammatory response”. The “cardiac function (ejection fraction) following MI/R” value [4] was “prevented loss of cardiac function following MI/R”, the “serum troponin I concentrations after MI/R” value [5] was “significantly reduced” and the “loss of cardiac progenitor cells (CPC) in diabetes” value [6] was “reversed this effect”.
